Data from PMC9676923, “Characterization of relaxin 3 and its receptors in chicken: Evidence for relaxin 3 acting as a novel pituitary hormone” (Frontiers in Physiology, 2022).
“Also recorded” adds a separate entry of the source.

Columns and labels:
RXFP3 [1] = settings: human RXFP3, Gαi/o coupled, ref Liu et al., 2003b, 2005, Bathgate et al., 2006, van der Westhuizen et al., 2007; cited from earlier work
Excerpt: (§1) As the typical member of the insulin superfamily, the RLNs bind their receptors to play their physiological roles. In mammals, RLN1 and RLN2 bind the relaxin family peptide 1 receptor (RXFP1) for downstream signaling ([Bathgate et al., 2013]). As their cognate receptor, RXFP1, which is also called the leucine-rich repeat-containing G-protein-coupled receptor 7 (LGR7), is capable of coupling to multiple G-proteins, thus triggering the pathways including cAMP accumulation ([Halls et al., 2006]; [Halls et al., 2007]; [Halls et al., 2009]), ERK1/2 phosphorylation, NO production, and other signalin ...

[2] = system: E2 production during follicular development; settings: female teleost fish; ref Wilson et al., 2009; Yang et al., 2020; cited from earlier work
Excerpt: Supporting evidence also comes from the high expression of its cognate receptor (cRXFP1) in chicken tissues. Similar to rats, RXFP1 is highly expressed in the uterus involving uterine contractions ([Hsu et al., 2002]; [Vodstrcil et al., 2010]). In addition, cRXFP1 is also detected to be expressed highly in a wide range of female tissues (infundibulum, isthmus, uterus, and vagina), th ...

RXFP1 = settings: ref Sudo et al., 2003, cited from earlier work
Excerpt: As the typical member of the insulin superfamily, the RLNs bind their receptors to play their physiological roles. In mammals, RLN1 and RLN2 bind the relaxin family peptide 1 receptor (RXFP1) for downstream signaling ([Bathgate et al., 2013]). […] However, only a dose-dependent increase in luciferase activity in HEK293 cells expressing chicken cRXFP1 is detected in the present study which is different from the report in mammalian species that RXFP1 is capable of coupling to Gs and other G-proteins (Gi/o), thus showing a biphasic pattern o ...

[3] = intraventricular (icv) injection, ref McGowan et al., 2008, 2014; cited from earlier work
Excerpt: (§2) Since GnRH is pulsed secreted and negatively regulated by CRH ([Ciechanowska et al., 2010]), the expression of RLN3 mRNA may be regulated by CRH. As the key player in the hypothalam ...

[4] = system: rat hypothalamic explants; settings: ref McGowan et al., 2008, 2014; cited from earlier work
Excerpt: as §2

RXFP3 [5] = settings: ref Liu et al., 2005; cited from earlier work
Excerpt: Although cRLN3 is able to activate both cRXFP1 and cRXFP3, the potency of cRLN3 for cRXFP1 activation is at least 10-fold higher than that for cRXFP3. […] The present study supports that chicken RLN3 is a functional analog of rhRLN3. However, our finding contrasts with that of mammalian species. […] The difference may result from ligand–receptor interaction mo ...

[6] = system: cRLN3 mRNA expression in cultured chicken pituitary cells; assay: cRLN3 mRNA expression (qPCR) in cultured pituitary cells of 4-week-old female chicks; type: cell-based
Method: (§3) The primers (10 μM), dNTP (10 mM), easy Taq buffer, easy Taq DNA polymerase (TransGen Biotech), Eva Green (Biotium), MilliQ-H2O, and templates were mixed in a total volume of 20 μl. Then the reaction mix was conducted on the CFX96 Real-Time PCR Detection System (Bio-Rad). The amplification conditions included an initial denaturation for 10 min at 94°C followed by 20 s of denaturation at 94°C, 15 s annealing at 60°C, and 30 s extension at 72°C for 40 cycles.
To explore the regulatory effects of GnRH/CRH/E2/P4 on cRLN3, the anterior pituitaries isolated from 4-week-old female chicks were sliced and digested by 0.25% trypsin at 37°C for 20 min. The dispersed pituitary cells were cultured at a density of 5 × 10^5 cells/well in Medium 199 supplemented with 15% fetal bovine serum. Then, the medium was replaced with a serum-free M199 medium and the cells were incubated with GnRH (1–100 nM), CRH (0.1–10 nM), E2 (100 nM), and P4 (100 nM) for different duration times (4 h/24 h). […] The total RNA was then extracted from cultured pituitary cells and the expression of RLN3 and β-actin mRNA was assayed by qPCR.
(§4) The relative mRNA levels of target genes were first calculated as the ratios to that of β-actin and then expressed as fold change (or the percentage) compared to their respective controls (chosen tissues). The data were analyzed by Student’s t-test (between two groups), or by one-way ANOVA followed by the Dunnett test in GraphPad Prism 7 (GraphPad Software, San Diego, CA).

CART = settings: chicken pituitary, ref Cai et al., 2015, Mo et al., 2019; cited from earlier work
Excerpt: Till present, a total of five genes (LHB, FSHB, GRP, CART, and RLN3) have been detected to be abundantly expressed in chicken pituitary gonadotrope cells ([Mo et al., 2017]; [Zhang et al., 2021]). Although these genes concentrate on the same cell cluster, these genes vary in sexual distribution patterns, cell co-localization profiles, and the hypothalamus regulation networks. For example, RLN3 and GRP show an abundance in female gonadotrope cells while LHB, FSHB, and CART show a higher expression in male pituitary cells. In addition, all cells expressing RLN3 overlap with the cells expressing ...

[7] = biological target: chicken relaxin family peptide 1 receptor (cRXFP1) (chicken)
[8] = biological target: chicken relaxin family peptide 3 receptor (cRXFP3) (chicken)
[9] = biological target: chicken relaxin family peptide 1 receptor (cRXFP1) (chicken); remark: listed apart in the source
[10] = system: cRLN3 mRNA expression in cultured chicken pituitary cells; settings: dihydrotestosterone 100 nM, 4 h/24 h; male chick pituitary cells; qPCR
Method: as §3
To explore the regulatory effects of GnRH/CRH/E2/P4 on cRLN3, the anterior pituitaries isolated from 4-week-old female chicks were sliced and digested by 0.25% trypsin at 37°C for 20 min. The dispersed pituitary cells were cultured at a density of 5 × 10^5 cells/well in Medium 199 supplemented with 15% fetal bovine serum. Then, the medium was replaced with a serum-free M199 medium and the cells were incubated with GnRH (1–100 nM), CRH (0.1–10 nM), E2 (100 nM), and P4 (100 nM) for different duration times (4 h/24 h). […]
as §4

cRXFP1 = assay: pGL3-CRE-luciferase reporter (cAMP/PKA), HEK293 cells expressing cRXFP1; type: cell-based, chicken
Method: According to our previously established methods ([Liu et al., 2019]; [Jiang et al., 2022]), two cell-based luciferase reporter systems (pGL3-CRE-luciferase and pGL3-NFAT-RE-luciferase) were used to verify whether cRLN3cm is biologically active and capable of activating cRXFP1 and cRXFP3. In brief, HEK293 cells transiently expressing each receptor (cRXFP1 and cRXFP3) were treated with 30 μl serum-free medium containing cRLN3cm or pcDNAcm (0.001–10 μl) for 6 h, and the receptor-activated cAMP/PKA pathways and calcium mobilization were then monitored by pGL3-CRE-luciferase and pGL3-NFAT-RE-luciferase reporter systems, respectively. HEK293 cells expressing empty pcDNA3.1 (+) were used as a negative control.
To compare the functional difference between chicken RLN3 and human RLN3, recombinant human RLN3 (rhRLN3, 10^–12 to 10^–7 M, 6 h) was used to treat HEK293 cells expressing cRXFP1 or cRXFP3, respectively, and its potency in activating cRXFP1 and cRXFP3 was also evaluated.
To verify whether chicken RLN3 can activate RXFP1 or RXFP3, a cRLN3-conditioned medium (cRLN3cm, 0.001–10 μl) was used to treat HEK293 cells expressing cRXFP1/cRXFP3. Receptor activation was examined by pGL3-CRE-luciferase and pGL3-NFAT-RE-luciferase reporter systems established in our previous studies ([Liu et al., 2019]).

[11] = system: relaxin family peptide 2 receptor (RXFP2); settings: ref Kumagai et al., 2002; Hsu et al., 2003; cited from earlier work
Excerpt: as §1

relaxin 3 [RLN3]
RXFP3, cAMP level on ligand binding (RXFP3 [1]): cAMP level decrease upon ligand binding
production of E2 during follicular development [2]: promotes the production of E2 during follicular development
RXFP1 activation, cAMP production (RXFP1; HEK293T cells): able to activate RXFP1 inducing a dose-dependent increase in cAMP production
RXFP1 activation in mammals (RXFP1; mammals, Halls et al., 2006): RXFP1 can be activated by RLN3
plasma LH, ACTH and corticosterone levels [3]: can also increase plasma LH, ACTH, and corticosterone levels
release of GnRH and CRH from hypothalamic explants [4]: can stimulate rat hypothalamic explants to release GnRH and CRH
potency on RXFP3 compared with RXFP1 in mammals (RXFP3 [5]): a higher potency for RXFP3 activation than for RXFP1

C[C@]12CC[C@@H]3c4ccc(O)cc4CC[C@H]3[C@@H]1CC[C@@H]2O [E2, 17β-estradiol]
effect of E2 on cRLN3 mRNA expression, 4 h ([6]; 17β-estradiol 100 nM, 4 h, qPCR): could increase the expression level of cRLN3 mRNA; also recorded: found to increase the expression of cRLN3
effect of E2 on cRLN3 mRNA expression, 24 h ([6]; 17β-estradiol 100 nM, 24 h, qPCR): could not regulate the mRNA expression of cRLN3

corticotropin-releasing hormone [CRH]
regulation of CART, GnRH compared with CRH (CART): equal potency
effect of CRH on cRLN3 mRNA expression, time course ([6]; CRH 10 nM, 4 h and 24 h, qPCR, fold vs control): significantly increase the expression of cRLN3 mRNA in a time-dependent manner
effect of CRH on cRLN3 mRNA expression, dose response ([6]; CRH 0.1, 1, 10 nM, 24 h, qPCR, N = 4): could increase the expression level of cRLN3 mRNA in a dose-dependent manner; also recorded: potently stimulates the expression of cRLN3 in a dose- and time-dependent manner
stimulation of cRLN3 mRNA expression, CRH compared with GnRH ([6]; CRH 0.1–10 nM, 24 h vs GnRH 1–100 nM, 4 h): the stimulation effect of CRH was higher than that of GnRH

recombinant human relaxin 3 (rhRLN3) (ligand)
EC50 of activation, Ca2+ pathway (pGL3-NFAT-RE-luciferase reporter) in HEK293 cells expressing cRXFP1; rhRLN3 10^-12 to 10^-7 M, 6 h [7]: 21.1 nM
EC50 of activation, cAMP/PKA pathway (pGL3-CRE-luciferase reporter) in HEK293 cells expressing cRXFP1; rhRLN3 10^-12 to 10^-7 M, 6 h [7]: 2.68 nM
EC50 of inhibition of forskolin-stimulated luciferase activity, cAMP/PKA pathway (pGL3-CRE-luciferase reporter) in HEK293 cells expressing cRXFP3; rhRLN3 10^-12 to 10^-7 M, 6 h [8]: 41.5 nM

chicken relaxin 3 (cRLN3), in conditioned medium of HEK293 cells transfected with the cRLN3 expression plasmid (ligand)
potency of cRLN3cm in activating cRXFP1 relative to cRXFP3, pGL3-CRE-luciferase reporter in HEK293 cells [9]: > 10 fold

C[C@]12CCC(=O)C[C@@H]1CC[C@@H]1[C@@H]2CC[C@]2(C)[C@@H](O)CC[C@@H]12 [DHT, dihydrotestosterone]
effect of DHT on cRLN3 mRNA expression [10]: could not affect the expression of cRLN3 mRNA

Chicken gonadotropin-releasing hormone (QHWSYGLQPG; Gonadoliberin-1; UniProt P37042 24-33, looked up) [GnRH, synthesized using solid-phase Fmoc chemistry (GL Biochem, Shanghai, China)]
regulation of CART, GnRH compared with CRH (CART): equal potency
effect of GnRH on cRLN3 mRNA expression, 4 h ([6]; GnRH 10 nM, 4 h, qPCR, fold vs control): slightly increase the expression of cRLN3 mRNA
effect of GnRH on cRLN3 mRNA expression, 24 h ([6]; GnRH 10 nM, 24 h, qPCR, fold vs control): not able to further regulate the expression of cRLN3 mRNA
effect of GnRH on cRLN3 mRNA expression, dose response ([6]; GnRH 1, 10, 100 nM, 4 h, qPCR, N = 4): could increase the expression level of cRLN3 mRNA in a dose-dependent manner; also recorded: could only weakly stimulate the mRNA expression of cRLN3

CC(=O)[C@H]1CC[C@H]2[C@@H]3CCC4=CC(=O)CC[C@]4(C)[C@H]3CC[C@]12C [P4, progesterone]
effect of P4 on cRLN3 mRNA expression ([6]; progesterone 100 nM, 4 h/24 h, qPCR): could not affect the expression of cRLN3 mRNA

chicken relaxin 3 [cRLN3]
potency on cRXFP1 compared with cRXFP3 (in words) (cRXFP1; HEK293 cells expressing cRXFP1 or cRXFP3): cRXFP1 showed a higher binding potency with cRLN3 than cRXFP3
potency in activating cRXFP1 relative to cRXFP3 (cRXFP1; fold more potent on cRXFP1 than on cRXFP3, cRLN3cm, HEK293 cells): at least 10 fold

insulin-like peptide 3 [INSL3]
RXFP2 downstream signaling [11]: cAMP level increase and thymidine incorporation
